In PubChem BioAssay (NCI):
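Each compound was tested at five concentrations against cells in 96-well plates for 48 hours. GI50 marks 50% less growth. At the TGI there is no net growth.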 Where a SMILES comes first, the peptide text is derived from it. [ ]: non-standard residue; d: D form. The star is where a group is joined. NMeF = CN[CH](Cc1ccccc1)C(=O)O; NMeV = CN[CH](C(=O)O)C(C)C; Boc = CC(C)(C)OC(=O)*

Columns and labels:
Assay in all cases: NCI-60 cell line screen, 48 h
SN12C renal = system: SN12C renal
CAKI-1 renal = system: CAKI-1 renal
UACC-62 melanoma = system: UACC-62 melanoma
SNB-19 CNS = system: SNB-19 CNS
A498 renal = system: A498 renal
SK-OV-3 ovarian = system: SK-OV-3 ovarian
NCI-H460 lung = system: NCI-H460 lung
SF-295 CNS = system: SF-295 CNS
HOP-92 NSCLC = system: HOP-92 NSCLC
PC-3 prostate = system: PC-3 prostate

SMILES	TGI (SN12C renal) [µM]	TGI (CAKI-1 renal) [µM]	TGI (UACC-62 melanoma) [µM]	TGI (SNB-19 CNS) [µM]	TGI (A498 renal) [µM]	TGI (SK-OV-3 ovarian) [µM]	TGI (NCI-H460 lung) [µM]	TGI (SF-295 CNS) [µM]	TGI (HOP-92 NSCLC) [µM]	TGI (PC-3 prostate) [µM]	GI50 (SN12C renal) [µM]	GI50 (CAKI-1 renal) [µM]	GI50 (UACC-62 melanoma) [µM]	GI50 (SNB-19 CNS) [µM]	GI50 (A498 renal) [µM]	GI50 (HOP-92 NSCLC) [µM]	GI50 (NCI-H460 lung) [µM]	GI50 (SF-295 CNS) [µM]	GI50 (PC-3 prostate) [µM]	GI50 (SK-OV-3 ovarian) [µM]
Cc1cc(Cl)ccc1N=C1NC(=O)C(CC(=O)Nc2ccc([N+](=O)[O-])cc2[N+](=O)[O-])S1 (configuration not stated)	90.7	54.3	64.7	73.2	51.5	55	84.9	59.5	–	–	–	–	–	–	–	–	–	–	–	–
CCOC(=O)CC1(C(=O)OCC)c2[nH]c3ccccc3c2CCN1Cc1ccccc1 (configuration not stated)	27.8	99.2	32.2	> 100	35.9	> 100	42.6	32.8	32.2	–	–	–	–	–	–	–	–	–	–	–
Cc1ccn2c(c1)nc1nc3ccccc3nc12	–	> 100	> 100	> 100	–	> 100	> 100	> 100	> 100	–	–	–	–	–	–	–	–	–	–	–
COC(=O)C1=C(C)N(NC(=O)OC(C)(C)C)C(=O)C1=P(c1ccccc1)(c1ccccc1)c1ccccc1	> 100	> 100	> 100	> 100	> 100	> 100	> 100	> 100	> 100	–	–	–	–	–	–	–	–	–	–	–
NCC1Nc2ccccc2[C@@H](O)C1O (some centres not stated)	> 100	> 100	> 100	> 100	–	> 100	> 100	> 100	> 100	> 100	–	–	–	–	–	–	–	–	–	–
CC1CC[C@]2(C(=O)O)CCC3(C)C(=CC(=O)C4[C@@]5(C)CCC(=O)C(C)(C)C5CC[C@]43C)[C@@H]2[C@H]1C (some centres not stated)	> 100	> 100	30.6	> 100	> 100	> 100	> 100	> 100	73.2	–	–	–	–	–	–	–	–	–	–	–
O=C(N/N=C/c1ccccc1)c1c(-c2cccnc2)cnc2ccccc12	> 100	> 100	> 100	> 100	–	> 100	> 100	> 100	> 100	> 100	–	–	–	–	–	–	–	–	–	–
COC(=O)/C(=N\Nc1nnc(C)n1N)C(C#N)c1ccc(Cl)cc1 (configuration not stated)	> 100	> 100	> 100	> 100	> 100	> 100	> 100	> 100	> 100	–	–	–	–	–	–	–	–	–	–	–
O=C1CCN2C(=O)CCN12	> 100	> 100	> 100	> 100	> 100	> 100	> 100	> 100	> 100	–	–	–	–	–	–	–	–	–	–	–
NCCCCN(CCCN)/[N+]([O-])=N\O	> 100	> 100	> 100	> 100	–	> 100	> 100	> 100	> 100	–	–	–	–	–	–	–	–	–	–	–
CC(C)C(Nc1c2ccccc2nc2ccccc12)C(=O)O (configuration not stated)	> 100	> 100	> 100	> 100	–	> 100	> 100	> 100	> 100	–	–	–	–	–	–	–	–	–	–	–
CC(=O)[O-].CCN(CC)c1ccc(C=NCCN=Cc2ccc(N(CC)CC)cc2[O-])c([O-])c1.[Mn+3]	48.8	> 100	57.5	42.8	53.1	–	43.5	71.8	93.9	–	20.9	> 100	25.7	19.9	22.9	38.3	21.3	27.7	–	–
Cn1c(=O)c(C(c2ccc([N+](=O)[O-])cc2)c2c(O)c3ccccc3n(C)c2=O)cc2ccccc21 (configuration not stated)	> 100	> 100	42.3	> 100	–	> 100	> 100	> 100	> 100	–	–	–	–	–	–	–	–	–	–	–
Cn1c2c(c3ccccc31)CC1c3c(c4ccccc4n3C)CC21 (configuration not stated)	> 100	> 100	> 100	> 100	–	> 100	> 100	> 100	> 100	> 100	–	–	–	–	–	–	–	–	–	–
COc1cc2c3c(n(CCCNC(=O)OCC4c5ccccc5-c5ccccc54)c(=O)c2cc1OC)-c1cc2c(cc1/C3=C\CCNC(=O)OCC1c3ccccc3-c3ccccc31)OCO2	> 50	> 46.1	> 36	> 50	–	> 50	> 50	> 50	> 50	> 50	> 50	> 13.8	> 21.6	> 29.6	–	> 40.7	> 50	> 23.6	> 50	> 25.6
c1ccc2c(c1)ccn2CCc1c[nH]c2ccccc12	> 10	> 10	> 10	> 10	–	> 10	> 10	> 10	> 10	> 10	–	–	–	–	–	–	–	–	–	–
C1=CC2SSSC2C1 (configuration not stated)	> 100	–	> 100	> 100	–	> 100	> 100	> 100	> 100	–	–	–	–	–	–	–	–	–	–	–
O=C1OC(c2ccccc2)=N/C1=C\c1cccc2ccccc12	> 100	> 100	> 100	> 100	> 100	> 100	> 100	> 100	> 100	–	–	–	–	–	–	–	–	–	–	–
Cc1cccc(NC(=O)C(=O)C(C(=O)c2ccc3ccccc3c2)C2OC(=O)c3ccccc32)c1C (configuration not stated)	40.4	39.3	22.5	25.4	24.2	54.4	87.8	–	36.8	–	–	–	–	–	–	–	–	–	–	–
Cc1ccc(C2=C(c3ccccc3)C(Br)(c3ccc(C)cc3)C(c3ccccc3)=C2c2ccc(C)cc2)cc1	> 100	> 100	> 100	> 100	> 100	> 100	> 100	> 100	> 100	–	–	–	–	–	–	–	–	–	–	–
CC(C)C(NC(=O)OC(C)(C)C)C(=O)N(C)C(Cc1ccccc1)C(=O)N(C)C(C(=O)O)C(C)C (stereo not drawn) (Boc-Val-[NMeF]-[NMeV]-OH; configuration not given here)	> 100	–	> 100	> 100	–	> 100	> 100	> 100	–	–	–	–	–	–	–	–	–	–	–	–
CCOc1ccccc1NC(=O)CC(C(=O)OC)C(=O)C(=O)OC (configuration not stated)	> 100	> 100	> 100	> 100	> 100	> 100	> 100	> 100	> 100	–	–	–	–	–	–	–	–	–	–	–
